Experimental data as given in paper doi:10.1101/2024.07.10.602960v2, “Contrasting Kinetics of Highly Similar Chloroalkane Reductive Dehalogenases” (biorxiv, 2024).
Where two headings read alike, the source gives them in different places.

Legend:
AcdA [1] = test system: T1, AcdA; test: GC-FID product formation in gas-tight syringe, […] min; Michaelis-Menten fit; format: biochemical, Dehalobacter sp.; settings: 50 mM Tris-HCl pH 7.5, 1 mM methyl viologen, 5 mM Ti(III) citrate, anaerobic, 24 °C
T1 construct: expressed from p15TVL-acdA with pBAD42-BtuCEDFB in E. coli BL21(DE3) suf strain; partially purified; 48 kDa; cobamide and two iron-sulfur clusters

AcdA [2] = test system: T1, AcdA; test: GC-FID, total consumption in gas-tight syringe, […] min; substrate-inhibition Michaelis-Menten fit; format: biochemical, Dehalobacter sp.; settings: 50 mM Tris-HCl pH 7.5, 1 mM methyl viologen, 5 mM Ti(III) citrate, anaerobic, 24 °C
AcdA [3] = molecular target: T1, AcdA; test: as above; format: biochemical, Dehalobacter sp.; settings: 50 mM Tris-HCl pH 7.5, 1 mM methyl viologen, 5 mM Ti(III) citrate, anaerobic, 24 °C; remark: listed apart in the source
CfrA [4] = molecular target: T2, CfrA (Dehalobacter sp. CF, UniProt K4LFB7); test: as above; format: biochemical; settings: 50 mM Tris-HCl pH 7.5, 1 mM methyl viologen, 5 mM Ti(III) citrate, anaerobic, 24 °C
T2 construct: expressed from p15TVL-cfrA with pBAD42-BtuCEDFB in E. coli BL21(DE3) suf strain; partially purified; 48 kDa; cobamide and two iron-sulfur clusters

TmrA [5] = molecular target: T3, TmrA (Dehalobacter sp. UNSWDHB, UniProt T0I6H2); test: as above; format: biochemical; settings: 50 mM Tris-HCl pH 7.5, 1 mM methyl viologen, 5 mM Ti(III) citrate, anaerobic, 24 °C
T3 construct: expressed from p15TVL-tmrA with pBAD42-BtuCEDFB in E. coli BL21(DE3) suf strain; partially purified; 48 kDa; cobamide and two iron-sulfur clusters
T3 sequence (T0I6H2 51-456): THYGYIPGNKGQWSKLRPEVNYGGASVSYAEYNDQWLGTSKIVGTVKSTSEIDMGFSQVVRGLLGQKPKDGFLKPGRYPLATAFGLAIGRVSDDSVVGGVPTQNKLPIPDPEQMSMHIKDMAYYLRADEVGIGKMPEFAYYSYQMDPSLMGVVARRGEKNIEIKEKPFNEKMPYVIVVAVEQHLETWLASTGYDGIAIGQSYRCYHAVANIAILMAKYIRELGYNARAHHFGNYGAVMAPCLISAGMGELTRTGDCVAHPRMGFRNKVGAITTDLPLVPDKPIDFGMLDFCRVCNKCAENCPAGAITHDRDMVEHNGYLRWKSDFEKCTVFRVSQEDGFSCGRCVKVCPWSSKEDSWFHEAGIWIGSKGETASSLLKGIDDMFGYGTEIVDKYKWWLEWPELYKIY

AcdA [6] = settings: 50 mM Tris-HCl pH 7.5, 1 mM methyl viologen, 5 mM Ti(III) citrate, anaerobic, 24 °C; substrate inhibition
AcdA [7] = settings: 50 mM Tris-HCl pH 7.5, 1 mM methyl viologen, 5 mM Ti(III) citrate, anaerobic, 24 °C
CfrA [8] = molecular target: T4, CfrA (Dehalobacter sp. CF, UniProt K4LFB7); test: inhibition of chloroform dechlorination, GC-FID, […] min; single TCE concentration fit; format: biochemical; settings: uncompetitive; chloroform as substrate, about […] TCE, […] Tris-HCl pH […] methyl viologen, Ti(III) citrate, […] °C
T4 construct: expressed from p15TVL-cfrA with pBAD42-BtuCEDFB in E. coli BL21(DE3) suf strain; partially purified; 48 kDa; cobamide and two iron-sulfur clusters
T4 sequence (K4LFB7 43-456 limits assumed): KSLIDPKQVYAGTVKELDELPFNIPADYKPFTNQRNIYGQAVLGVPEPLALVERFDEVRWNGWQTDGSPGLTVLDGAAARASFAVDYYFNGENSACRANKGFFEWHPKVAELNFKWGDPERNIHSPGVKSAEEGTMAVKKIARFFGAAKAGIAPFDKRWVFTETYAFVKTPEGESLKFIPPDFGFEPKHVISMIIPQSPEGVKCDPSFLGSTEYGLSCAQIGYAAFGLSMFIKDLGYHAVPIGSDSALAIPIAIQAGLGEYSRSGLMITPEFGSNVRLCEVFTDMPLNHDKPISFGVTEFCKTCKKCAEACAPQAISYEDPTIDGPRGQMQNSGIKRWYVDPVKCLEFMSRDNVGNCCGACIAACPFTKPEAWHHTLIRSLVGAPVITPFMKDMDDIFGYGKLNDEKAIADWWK

TmrA [9] = molecular target: T3, TmrA; test: as above; format: biochemical; settings: uncompetitive; chloroform as substrate, about 45 µM TCE, 50 mM Tris-HCl pH 7.5, 1 mM methyl viologen, Ti(III) citrate, 20 °C

## CC(Cl)(Cl)Cl [1,1,1-trichloroethane]
AcdA [1]
  Km: 280 ± 100 µM

## ClCC(Cl)Cl [1,1,2-trichloroethane]
AcdA [2]
  Km: 120 ± 20 µM
AcdA [3]
  KI,TCA: 2 ± 0.55 mM
CfrA [4]
  KI,TCA: 7.1 ± 4.4 mM
TmrA [5]
  KI,TCA: 6.2 ± 3.7 mM

## ClC(Cl)Cl [chloroform]
AcdA [6]
  KI,CF: 0.61 ± 0.24 mM
AcdA [7]
  Km: 29 ± 8 µM

## ClC=C(Cl)Cl [trichloroethene]
CfrA [8]
  KI,TCE: All three enzymes showed better model fits with uncompetitive inhibition
TmrA [9]
  KI,TCE: All three enzymes showed better model fits with uncompetitive inhibition
